One test addresses T1, SC2 (Homo sapiens, UniProt Q9ULG1).
T1 construct: gene INO80; insect cells; with RuvB-like 1; RuvB-like 2
Nature of the test: coupled NADH fluorescence ATPase assay (PK/LDH). It is filed as biochemical. Conditions: 1 mM ATP, 100 nM nucleosome, 37°C.

The target in another test is T2, hIno80ΔIes2 complex (Homo sapiens, UniProt Q9ULG1).
T2 construct: gene INO80
Conditions: basal, no nucleosome; ATP:MgCl2:TRIS base 1:1:2; 37°C.

In test [1] the target is T3, hIno80 core complex (wild type) (Homo sapiens, UniProt Q9ULG1). Set-up: gene INO80. Particulars: basal, no nucleosome; ATP:MgCl2:TRIS base 1:1:2; 37°C.
Excerpt: coupled NADH fluorescence ATPase assay (PK/LDH) on hIno80 core complex (wild type)
For test [2], the target named is T3, hIno80 core complex (wild type). Nature of the test: coupled NADH fluorescence ATPase assay (PK/LDH). Conditions: 100 nM H2A nucleosome, ATP varied, 5 mM Mg2+, 37°C; non-competitive with ATP, competitive with nucleosomes; allosteric. It is filed as biochemical. Set-up: gene INO80; nine-subunit core, Ino80 267-1556 with N-terminal 8-His and C-terminal twin Strep-tag II; codon-optimised genes, BTI-TN-5B1-4 insect cells (MultiBac); calculated 743583 Da, SEC-MALS 802 kDa; actin gene not specified; Actin-like protein 6A; Actin-related protein 5; Actin-related protein 8; INO80 complex subunit B; INO80 complex subunit C; RuvB-like 1; RuvB-like 2.

T1 sequence (Q9ULG1 487-1556): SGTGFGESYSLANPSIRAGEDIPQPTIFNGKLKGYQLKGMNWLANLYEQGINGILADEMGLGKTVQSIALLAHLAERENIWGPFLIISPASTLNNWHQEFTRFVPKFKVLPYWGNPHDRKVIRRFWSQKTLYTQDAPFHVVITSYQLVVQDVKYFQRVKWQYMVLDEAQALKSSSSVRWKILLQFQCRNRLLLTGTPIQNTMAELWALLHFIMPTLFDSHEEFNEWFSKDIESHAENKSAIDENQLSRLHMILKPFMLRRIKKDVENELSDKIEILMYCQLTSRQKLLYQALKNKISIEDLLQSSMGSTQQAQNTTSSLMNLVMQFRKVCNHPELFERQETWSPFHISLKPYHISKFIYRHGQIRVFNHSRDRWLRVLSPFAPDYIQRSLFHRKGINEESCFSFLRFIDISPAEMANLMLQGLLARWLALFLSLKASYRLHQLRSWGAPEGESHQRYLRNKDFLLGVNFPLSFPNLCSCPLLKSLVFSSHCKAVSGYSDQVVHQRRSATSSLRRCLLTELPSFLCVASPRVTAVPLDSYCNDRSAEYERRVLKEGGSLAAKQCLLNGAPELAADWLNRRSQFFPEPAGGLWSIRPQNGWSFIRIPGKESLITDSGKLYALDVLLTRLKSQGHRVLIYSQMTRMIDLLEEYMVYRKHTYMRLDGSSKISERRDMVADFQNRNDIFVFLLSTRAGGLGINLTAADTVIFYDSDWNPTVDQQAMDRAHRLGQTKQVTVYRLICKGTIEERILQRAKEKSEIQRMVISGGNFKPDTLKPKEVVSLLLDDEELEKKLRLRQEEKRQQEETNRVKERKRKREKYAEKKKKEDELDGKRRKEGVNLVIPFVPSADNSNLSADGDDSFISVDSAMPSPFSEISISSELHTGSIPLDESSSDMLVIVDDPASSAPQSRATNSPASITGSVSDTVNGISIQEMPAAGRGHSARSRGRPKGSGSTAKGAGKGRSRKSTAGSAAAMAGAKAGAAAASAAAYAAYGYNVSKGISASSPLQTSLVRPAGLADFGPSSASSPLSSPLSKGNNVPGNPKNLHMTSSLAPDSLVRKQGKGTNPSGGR
T1 sequence (Q9Y265 whole entry partner): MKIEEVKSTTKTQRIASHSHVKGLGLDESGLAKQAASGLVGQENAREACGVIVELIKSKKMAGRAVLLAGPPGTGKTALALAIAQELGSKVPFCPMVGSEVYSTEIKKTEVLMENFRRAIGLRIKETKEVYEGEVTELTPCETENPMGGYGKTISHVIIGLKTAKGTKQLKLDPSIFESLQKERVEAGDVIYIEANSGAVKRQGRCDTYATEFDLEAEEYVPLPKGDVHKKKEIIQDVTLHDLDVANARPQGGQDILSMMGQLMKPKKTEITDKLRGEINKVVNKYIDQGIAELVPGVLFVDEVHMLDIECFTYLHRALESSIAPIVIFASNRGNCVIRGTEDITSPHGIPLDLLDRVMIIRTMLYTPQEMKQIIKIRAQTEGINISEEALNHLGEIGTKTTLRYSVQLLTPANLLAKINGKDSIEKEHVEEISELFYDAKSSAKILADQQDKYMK
T1 sequence (Q9Y230 2-463 partner): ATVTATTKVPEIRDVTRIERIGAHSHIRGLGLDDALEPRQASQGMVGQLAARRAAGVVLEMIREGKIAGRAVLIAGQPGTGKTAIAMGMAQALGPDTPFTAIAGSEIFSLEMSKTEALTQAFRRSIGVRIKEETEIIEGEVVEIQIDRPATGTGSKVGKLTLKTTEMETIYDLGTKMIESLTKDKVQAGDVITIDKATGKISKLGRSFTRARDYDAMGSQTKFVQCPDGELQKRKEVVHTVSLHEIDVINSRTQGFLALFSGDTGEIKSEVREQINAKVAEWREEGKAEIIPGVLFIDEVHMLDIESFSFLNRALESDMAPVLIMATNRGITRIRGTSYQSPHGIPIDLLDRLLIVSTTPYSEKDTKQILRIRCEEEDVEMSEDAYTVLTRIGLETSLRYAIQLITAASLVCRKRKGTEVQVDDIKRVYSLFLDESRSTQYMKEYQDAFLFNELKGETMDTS

Take `Nc1ncnc2c1ncn2[C@@H]1O[C@H](COP(=O)(O)OP(=O)(O)OP(=O)(O)O)[C@@H](O)[C@H]1O` [ATP]: on SC2, the “coupled NADH fluorescence ATPase assay (PK/LDH)” value was “Single point inhibition of Ino80 and SC2”. The Km (commonly the substrate concentration at which the rate is half of its maximum) at hIno80ΔIes2 complex is 326 ± 44 µM; in test [1] it was 171 ± 55 µM.
Turning to `O=P(O)(O)O[C@H]1[C@H](OP(=O)(O)O)[C@@H](OP(=O)(O)O)[C@H](OP(=O)(O)O)[C@@H](OP(=O)(O)O)[C@H]1OP(=O)(O)O` [IP6], the inhibition constant Ki (as a rule, a measure of affinity in units of concentration, obtained from inhibition or displacement) in test [2] is 37 ± 4 µM.

Values taken from PMC5041457, “Synergy and antagonism in regulation of recombinant human INO80 chromatin remodeling complex” (Nucleic Acids Research, 2016).
